Source: patent US4362746A (priority 1981, dated 1982)
Where a name gives a salt, the structure may show the parent alone. Read-outs that look alike come from different tables or passages of the source.

Tests used:
[1] = U.S. Pat. Nos. 3,932,512 and 4,046,811; cited from earlier work
G-2 cells = details: human, g-2 cells
in vitro = details: human, g-2 cells
[2] = system: influenza virus A2 /Aichi/2/68; assay type: in vivo, mice (Charles River, random bred white, female); details: for Mean Survival Time / Survival % / Survival N (surviving animals / total infected) / Mean Survival Time Increase: 16 days; for Mean Survival Time Increase: vs virus only
Influenza B/MASS/66 = test: In vitro anti-myxovirus assay, inhibition of hemadsorption, Influenza B/MASS/66 in G-2 cells; assay type: cell-based; details: Influenza B virus, 56 TCID50
Experimental: In preparing the compounds for testing, they were handled aseptically throughout. The compounds were dissolved in a minimum amount of a suitable solvent and the final dilutions were made up to the required volume in a complete culture medium used in assay and in concentration not exceeding the predetermined maximum non-toxic levels.
The antiviral assays were done in tissue cultures infected with an appropriate dose of an influenza virus.
The cell culture used in all in vitro anti-myxovirus assays was an established cell line of the human conjunctiva (G-2 cells). The cytotoxic studies of each of the compounds were performed prior to testing for antiviral activity to determine level of response of the cells to the potentially toxic action of the compounds.
For the antiviral assays the cells were grown in triplicates per dilution of compound in test tubes in a suitable medium. Immediately before use the initial medium was replaced with the one containing the test compound in an appropriate concentration. After virus was added at approximately 10 and 100 TCID50 dose levels the infected culture was incubated at 32° C. for a number of days. The medium was then drained, red blood cells added and after washing, the extent of hemadsorption evaluated. The percentage of inhibition of adsorption (a measure of antiviral activity) was then calculated. In all anti-myxovirus testing in vitro, as well as in vivo, amantadine (a known antiviral agent) was used as a reference standard.

Influenza A2 /MTL/68 = test: In vitro anti-myxovirus assay, inhibition of hemadsorption, Influenza A2/MTL/68 in G-2 cells; assay type: cell-based, Influenza A2 /Montreal/68; details: for inhibition at 5 µg/mL: 5 ug/ml; for inhibition at 10 µg/mL: 10 ug/ml; for inhibition at 25 µg/mL: 25 ug/ml; for inhibition at 33 µg/mL: 33 ug/ml; for inhibition at 50 µg/mL: 50 ug/ml
in vivo [3] = details: mouse
Acute toxicity in mice = details: mouse, in vivo
mice [4] = test: Acute toxicity in mice; details: after 24 hours
[5] = system: Influenza A/Swine/1976/31; test: microbe, parasite or virus in culture; assay type: cell-based; details: in Sus scrofa
[6] = Subacute toxicity in mice; details: mouse, in vivo
mice [7] = test: Subacute toxicity in mice; details: for Subacute LD0 (non-lethal dose): once a day, seventeenth day of treatment
in vivo [8] = details: mouse; remark: listed apart in the source
[9] = Exp. 2, virus dose 2.0 LD50, 300 mg/kg/day IP
[10] = Exp. 3, virus dose 2.6 LD50, 200 mg/kg/day IP
[11] = Exp. 4, virus dose 3.0 LD50, 200 mg/kg/day IP

For N[C@@H]1C[C@H]2C[C@@H]1c1ccccc12 (relative stereo) [1,2,3,4-tetrahydro-1,4-methanonaphthalen-endo-2-amine], the antiviral activity [1] is listed as “exhibited antiviral activity”.
With CN(C)C[C@H]1[C@@H](N)[C@@H]2C[C@H]1c1ccccc12 (relative stereo) [Compound B, endo-3-dimethylaminomethyl-endo-2-amino-1,2,3,4-tetrahydro-1,4-methanonaphthalene dihydrochloride] the “Cytotoxicity CTD50” value (G-2 cells) was greater than 100 µg/mL, the MNTC (in vitro; Cytotoxicity CTD0, maximal non-toxic concentration) was 50 µg/mL and the CC50 (in vitro; Cytotoxicity CTD50) was 100 µg/mL. The “Mean Survival Time” value [2, 9] was 14.5 days, the Survival % [2, 9] was 70% and the “Survival N (surviving animals / total infected)” value [2, 9] was 14/20. For the same compound, the “Mean Survival Time Increase” value [2, 9] was “+2.1 Days”, the “Mean Survival Time” value [2, 10] was 13.2 days and the Survival % [2, 10] was 40%. For the same compound, the “Survival N (surviving animals / total infected)” value [2, 10] was 8/20, the “Mean Survival Time Increase” value [2, 10] was “+2.1 Days” and the “Mean Survival Time” value [2, 11] was 13.5 days. For the same compound, the Survival % [2, 11] was 45%, the “Survival N (surviving animals / total infected)” value [2, 11] was 9/20 and the “Mean Survival Time Increase” value [2, 11] was “+2.2 Days”. The “antiviral effect against influenza virus infection” value ([2]; administered intraperitoneally, […]) was “significant antiviral effect”, the inhibition at 10 µg/mL (Influenza B/MASS/66; 10 ug/ml) was 0% and the inhibition at 25 µg/mL (Influenza B/MASS/66; 25 ug/ml) was 17%. For the same compound, the inhibition at 33 µg/mL (Influenza B/MASS/66; 33 ug/ml) was 43%, the inhibition at 50 µg/mL (Influenza B/MASS/66; 50 ug/ml) was 73% and the inhibition at 5 µg/mL (Influenza A2 /MTL/68; 32 TCID50) was 0%. It also gave an inhibition at 10 µg/mL (Influenza A2 /MTL/68; 32 TCID50) of 30%, an inhibition at 25 µg/mL (Influenza A2 /MTL/68; 32 TCID50) of 78% and an inhibition at 33 µg/mL (Influenza A2 /MTL/68; 32 TCID50) of 93%. For the same compound, the inhibition at 50 µg/mL (Influenza A2 /MTL/68; 32 TCID50) was 93%, the inhibition at 5 µg/mL (Influenza A2 /MTL/68; 316 TCID50) was 0% and the inhibition at 10 µg/mL (Influenza A2 /MTL/68; 316 TCID50) was 0%. The inhibition at 25 µg/mL (Influenza A2 /MTL/68; 316 TCID50) was 70%, the inhibition at 33 µg/mL (Influenza A2 /MTL/68; 316 TCID50) was 76% and the inhibition at 50 µg/mL (Influenza A2 /MTL/68; 316 TCID50) was 83%. The NOAEL at 24 h (in vivo [3]; ip) was greater than 750 mg/kg/day, the NOAEL at 24 h (in vivo [3]; po) was greater than 750 mg/kg/day and the LD50 at 24 h (Acute toxicity in mice; ip) was 550 mg/kg. The LD50 at 24 h (Acute toxicity in mice; po) was greater than 750 mg/kg, the “Acute LD0 (non-lethal dose)” value (mice [4]; IP) was 450 mg/kg/day and the “Acute LD0 (non-lethal dose)” value (mice [4]; PO) was greater than 750 mg/kg/day. The inhibition at 5 µg/mL ([5]; 316 TCID50, 5 ug/ml) was 0%, the inhibition at 10 µg/mL ([5]; 316 TCID50, 10 ug/ml) was 70% and the inhibition at 25 µg/mL ([5]; 316 TCID50, 25 ug/ml) was 92%. It also gave an inhibition at 33 µg/mL ([5]; 316 TCID50, 33 ug/ml) of 100%, an LD50 at 408 h ([6]; ip) of 500 mg/kg and an LD50 at 408 h ([6]; po) greater than 750 mg/kg. The “Subacute LD0 (non-lethal dose)” value (mice [7]; IP) was 450 mg/kg/day, the “Subacute LD0 (non-lethal dose)” value (mice [7]; PO) was greater than 750 mg/kg/day and the “clinical sign of toxicity (weight)” value (mice [7]; PO, subacute, at TD0 750) was “Slight loss of weight”. For the same compound, the NOAEL at 408 h (in vivo [8]; ip) was 400 mg/kg/day and the NOAEL at 408 h (in vivo [8]; po) was 750 mg/kg/day.
For N[C@H]1C[C@H]2C[C@@H]1c1ccccc12 (relative stereo) [isomer with the amino substituent taking up the exo configuration], the antiviral activity [1] is listed as “showed no antiviral activity”.
